The results in this text go back to ChEMBL document CHEMBL1201862, “PubChem BioAssay data set” (2004).

Assay [1] is described as follows: antiviral protection against BTV-induced cell death – arbovirus, BSR cells, confirmation (AID 1250).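 Also: protection from viral cytopathic effect measured as cell viability by ATP luminescence.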 Type of assay: functional.
For another assay, the target named is Cytochrome P450 3A4 (Homo sapiens, UniProt P08684).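 Also: CYP3A4 tested as one member of a cytochrome P450 panel screen.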
The target of assay [2] is Peroxisome proliferator-activated receptor gamma/Nuclear receptor corepressor 2 (Homo sapiens, UniProt P37231+Q9Y618). Type of assay: functional.
Assay [3] addresses Photoreceptor-specific nuclear receptor (Homo sapiens, UniProt Q9Y5X4). It is filed as functional.
Assay [4] in a line: blockade of melanocortin 4 receptor signaling – cell-based, plate reader, cherry pick, counter-screen for LGR2 antagonist project, dose response (AID 743444).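 Also: transfected HEK 293 cells stimulated with alpha-MSH peptide; potency of inhibitors of the alpha-MSH evoked signal.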 It is filed as functional. In general terms: A counterscreen serves to expose hits that act by an unwanted route or on another target.
A further assay deals with T1, Protein skinhead-1 (Caenorhabditis elegans, UniProt P34707).
T1 sequence (P34707 whole entry): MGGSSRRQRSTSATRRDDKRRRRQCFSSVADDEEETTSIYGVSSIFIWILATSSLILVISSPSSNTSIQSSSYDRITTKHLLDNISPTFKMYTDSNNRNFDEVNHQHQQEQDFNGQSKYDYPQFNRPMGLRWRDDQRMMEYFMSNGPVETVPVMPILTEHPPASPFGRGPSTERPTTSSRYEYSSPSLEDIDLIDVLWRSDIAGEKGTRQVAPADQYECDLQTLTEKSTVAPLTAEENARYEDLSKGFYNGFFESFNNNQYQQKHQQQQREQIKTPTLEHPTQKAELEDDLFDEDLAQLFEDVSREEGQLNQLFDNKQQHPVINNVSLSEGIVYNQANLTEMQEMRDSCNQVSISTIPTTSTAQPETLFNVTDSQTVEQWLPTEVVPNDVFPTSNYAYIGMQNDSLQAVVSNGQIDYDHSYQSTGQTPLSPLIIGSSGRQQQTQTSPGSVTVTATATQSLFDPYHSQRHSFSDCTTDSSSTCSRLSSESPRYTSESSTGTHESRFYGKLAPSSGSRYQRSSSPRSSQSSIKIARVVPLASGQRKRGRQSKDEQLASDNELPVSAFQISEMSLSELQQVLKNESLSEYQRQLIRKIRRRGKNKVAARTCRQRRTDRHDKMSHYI
Type of assay: functional.

Assay [5] is described as follows: blockers of bursicon-stimulated LGR2 cAMP reporter – cell-based, HEK293, CRE-luciferase reporter, cherry pick, set 2, dose response (AID 743343).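 Also: transfected cells were stimulated with diluted bursicon conditioned medium after compound addition.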 Type of assay: functional. (In general: In a reporter assay the amount or activity of a reporter protein is the signal.)
The target of another assay is T2, Estrogen receptor (Homo sapiens, UniProt P03372).
T2 sequence (P03372 whole entry): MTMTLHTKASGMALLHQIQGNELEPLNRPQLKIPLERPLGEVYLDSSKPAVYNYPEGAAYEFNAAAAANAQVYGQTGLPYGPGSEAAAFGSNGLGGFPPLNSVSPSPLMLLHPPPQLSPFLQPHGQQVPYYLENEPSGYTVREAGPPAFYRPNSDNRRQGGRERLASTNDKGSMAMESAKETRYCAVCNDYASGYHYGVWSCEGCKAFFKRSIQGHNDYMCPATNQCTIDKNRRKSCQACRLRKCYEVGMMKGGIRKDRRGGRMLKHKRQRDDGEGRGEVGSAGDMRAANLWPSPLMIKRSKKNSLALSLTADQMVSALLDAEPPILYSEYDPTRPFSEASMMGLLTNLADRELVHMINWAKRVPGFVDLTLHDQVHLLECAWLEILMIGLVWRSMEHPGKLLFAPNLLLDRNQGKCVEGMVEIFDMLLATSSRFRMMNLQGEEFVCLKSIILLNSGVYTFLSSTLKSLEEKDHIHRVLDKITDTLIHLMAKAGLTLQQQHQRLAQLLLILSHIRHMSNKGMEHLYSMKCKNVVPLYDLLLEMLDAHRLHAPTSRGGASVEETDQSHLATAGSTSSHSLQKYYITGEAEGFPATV
Kind of assay: ERα coactivator recruitment enhancers – biochemical, TR-FRET, ERα LBD, dose response (AID 737).

Assay [6] concerns the target T3, Aryl hydrocarbon receptor (Homo sapiens, UniProt P35869).
T3 sequence (P35869 whole entry): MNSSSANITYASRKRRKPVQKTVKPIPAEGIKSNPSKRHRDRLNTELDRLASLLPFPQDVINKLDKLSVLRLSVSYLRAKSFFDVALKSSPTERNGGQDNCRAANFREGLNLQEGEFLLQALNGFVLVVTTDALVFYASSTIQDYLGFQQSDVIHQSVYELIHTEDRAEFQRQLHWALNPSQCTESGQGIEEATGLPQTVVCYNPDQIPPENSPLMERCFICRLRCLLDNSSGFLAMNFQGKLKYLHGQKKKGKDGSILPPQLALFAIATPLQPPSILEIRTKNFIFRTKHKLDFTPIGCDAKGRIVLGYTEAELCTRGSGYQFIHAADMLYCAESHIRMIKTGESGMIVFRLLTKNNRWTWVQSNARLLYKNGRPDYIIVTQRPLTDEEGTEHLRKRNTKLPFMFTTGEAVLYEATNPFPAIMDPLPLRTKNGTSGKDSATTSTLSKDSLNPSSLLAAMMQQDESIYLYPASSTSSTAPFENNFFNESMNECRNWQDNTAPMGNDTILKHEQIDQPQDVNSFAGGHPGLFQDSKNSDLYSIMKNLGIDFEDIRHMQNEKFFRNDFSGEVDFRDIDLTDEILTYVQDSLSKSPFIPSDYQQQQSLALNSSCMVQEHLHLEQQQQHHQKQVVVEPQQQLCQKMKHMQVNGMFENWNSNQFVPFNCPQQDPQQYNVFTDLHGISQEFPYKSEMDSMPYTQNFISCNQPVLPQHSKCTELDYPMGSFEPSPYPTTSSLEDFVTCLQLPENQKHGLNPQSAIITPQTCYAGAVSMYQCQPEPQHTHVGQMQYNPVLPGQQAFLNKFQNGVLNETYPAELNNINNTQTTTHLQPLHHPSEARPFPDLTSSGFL
Kind of assay: Luminescence-based cell-based high throughput dose response assay for activators of the Aryl Hydrocarbon Receptor (AHR). [Related pubchem assays: 2796 (Primary screen (AHR activators in singlicate)), 2845 (Confirmation screen (AHR activators in triplicate)), 434939 (Counterscreen (PXR activators in triplicate)), 2804 (Summary (AHR activators))]. It is filed as ADME.

Assay [7] in a line: Luminescence Cell-Based Dose Response HTS to Identify Activators of Luciferase Translation or Activity in H4 […] Cells. [Related pubchem assays: 1829 (Project Summary), 1814 (Primary HTS)]. Type of assay: functional.
Assay [8] addresses DNA dC->dU-editing enzyme APOBEC-3G (Homo sapiens, UniProt Q9HC16). Type of assay: functional.
The subject of the next assay is H4. The experiment in a line: Luminescence Cell-Based Dose Response HTS to Identify Activators of 5'UTR Stem-Loop Driven Prion Protein mRNA Translation in H4 Neuroglioblastoma Cells. [Related pubchem assays: 1829 (Project Summary), 1814 (Primary HTS)]. Type of assay: functional. To be noted: Homo sapiens.
Assay [9] addresses DNA dC->dU-editing enzyme APOBEC-3A (Homo sapiens, UniProt P31941). Kind of assay: Dose Response confirmation of small molecule APOBEC3A DNA Deaminase Inhibitors via a fluorescence-based single-stranded DNA deaminase assay. [Related pubchem assays (depositor defined):AID493011, AID493024]. It is filed as functional.
A short description of assay [10]: Luminescence Cell-Based Dose Confirmation HTS to Identify Activators of 5'UTR Stem-Loop Driven Alpha-Synuclein mRNA Translation in H4 Neuroglioblastoma Cells. [Related pubchem assays: 1829 (Project Summary), 1814 (Primary HTS)]. It is filed as functional.
The next assay concerns the target T4, Streptokinase A (Streptococcus pyogenes serotype M1, UniProt P10520).
T4 sequence (P10520 whole entry): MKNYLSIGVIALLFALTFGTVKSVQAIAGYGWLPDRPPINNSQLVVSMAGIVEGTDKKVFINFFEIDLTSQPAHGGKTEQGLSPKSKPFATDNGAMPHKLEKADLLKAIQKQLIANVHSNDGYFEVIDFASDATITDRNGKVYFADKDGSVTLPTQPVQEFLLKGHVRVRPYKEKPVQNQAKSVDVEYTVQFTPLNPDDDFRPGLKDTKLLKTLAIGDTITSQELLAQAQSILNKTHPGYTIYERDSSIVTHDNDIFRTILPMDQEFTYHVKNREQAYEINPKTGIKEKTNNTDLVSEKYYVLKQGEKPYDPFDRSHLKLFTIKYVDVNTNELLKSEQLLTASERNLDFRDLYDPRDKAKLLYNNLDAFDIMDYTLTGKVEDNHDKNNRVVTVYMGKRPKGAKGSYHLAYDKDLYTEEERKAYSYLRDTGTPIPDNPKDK
Kind of assay: viability-normalized secreted streptokinase activity reduction – plasminogen activation absorbance, OD405, dose response (AID 1914).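 Also: secreted streptokinase activity via plasminogen activation per viability signal from cell pellet.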 It is filed as functional, Streptococcus pyogenes M1 GAS.

Assay [11] has as its system Streptococcus sp. 'group A'. Kind of assay: Streptococcus pyogenes SK(-)GAS viability under kanamycin – luminescence, BacTiterGlo, confirmation, counter-screen for streptokinase expression inhibitor project, dose response (AID 1900). Type of assay: functional, organism-based.
For assay [12], the target named is T5, Mannose-6-phosphate isomerase (Homo sapiens, UniProt P34949).
T5 sequence (P34949 whole entry): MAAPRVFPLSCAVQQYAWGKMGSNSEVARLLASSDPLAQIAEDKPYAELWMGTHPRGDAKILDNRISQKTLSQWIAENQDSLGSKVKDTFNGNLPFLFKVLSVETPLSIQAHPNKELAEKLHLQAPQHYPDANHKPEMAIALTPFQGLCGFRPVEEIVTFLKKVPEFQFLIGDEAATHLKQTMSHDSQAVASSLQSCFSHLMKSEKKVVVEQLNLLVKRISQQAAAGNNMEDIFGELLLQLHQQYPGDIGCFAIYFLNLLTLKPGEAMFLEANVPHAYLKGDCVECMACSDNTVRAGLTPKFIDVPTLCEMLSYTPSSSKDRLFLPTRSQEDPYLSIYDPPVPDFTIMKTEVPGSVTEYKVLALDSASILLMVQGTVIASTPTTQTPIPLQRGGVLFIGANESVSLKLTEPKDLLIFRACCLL
The experiment in a line: MPI inhibition at elevated mannose 6-phosphate – biochemical, fluorescence intensity, high mannose 6-phosphate, primary screen (AID 1220).

Assay [13] deals with T5, Mannose-6-phosphate isomerase. The experiment in a line: MPI enzyme activity inhibition – biochemical, fluorescence intensity, coupled assay, primary screen (AID 1209).
The next assay relates to Streptococcus. The experiment in a line: GAS UMAA2166 growth inhibition – luminescence, BacTiterGlo, counter-screen for streptokinase expression inhibitor project, dose response (AID 1915).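 Also: potency for reduction of bacterial viability or growth.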 It is filed as functional, organism-based.
Assay [14] is described as follows: viability loss in THP-1 monocytes – THP-1 cells, cytotoxicity control for Vif-APOBEC3G degradation inhibitor project, dose response (AID 1117359). It is filed as functional. To be noted: THP-1.

Active and inactive are the calls of the source.

Chain of Peroxisome proliferator-activated receptor gamma/Nuclear receptor corepressor 2 (P37231 whole entry): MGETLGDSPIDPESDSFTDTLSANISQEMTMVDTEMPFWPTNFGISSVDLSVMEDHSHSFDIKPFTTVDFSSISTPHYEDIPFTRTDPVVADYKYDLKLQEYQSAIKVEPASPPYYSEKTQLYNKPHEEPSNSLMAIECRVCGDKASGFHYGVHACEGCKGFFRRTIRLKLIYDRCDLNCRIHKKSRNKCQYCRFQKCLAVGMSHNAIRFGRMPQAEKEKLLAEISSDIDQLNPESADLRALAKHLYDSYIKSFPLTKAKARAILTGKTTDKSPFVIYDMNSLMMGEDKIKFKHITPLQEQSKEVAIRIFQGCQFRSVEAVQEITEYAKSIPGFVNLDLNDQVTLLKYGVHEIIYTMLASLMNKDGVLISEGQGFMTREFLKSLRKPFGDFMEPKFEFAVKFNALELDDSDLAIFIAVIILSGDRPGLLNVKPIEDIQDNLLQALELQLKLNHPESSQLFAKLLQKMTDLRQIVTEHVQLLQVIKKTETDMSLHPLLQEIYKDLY
Chain of Peroxisome proliferator-activated receptor gamma/Nuclear receptor corepressor 2 (Q9Y618 whole entry): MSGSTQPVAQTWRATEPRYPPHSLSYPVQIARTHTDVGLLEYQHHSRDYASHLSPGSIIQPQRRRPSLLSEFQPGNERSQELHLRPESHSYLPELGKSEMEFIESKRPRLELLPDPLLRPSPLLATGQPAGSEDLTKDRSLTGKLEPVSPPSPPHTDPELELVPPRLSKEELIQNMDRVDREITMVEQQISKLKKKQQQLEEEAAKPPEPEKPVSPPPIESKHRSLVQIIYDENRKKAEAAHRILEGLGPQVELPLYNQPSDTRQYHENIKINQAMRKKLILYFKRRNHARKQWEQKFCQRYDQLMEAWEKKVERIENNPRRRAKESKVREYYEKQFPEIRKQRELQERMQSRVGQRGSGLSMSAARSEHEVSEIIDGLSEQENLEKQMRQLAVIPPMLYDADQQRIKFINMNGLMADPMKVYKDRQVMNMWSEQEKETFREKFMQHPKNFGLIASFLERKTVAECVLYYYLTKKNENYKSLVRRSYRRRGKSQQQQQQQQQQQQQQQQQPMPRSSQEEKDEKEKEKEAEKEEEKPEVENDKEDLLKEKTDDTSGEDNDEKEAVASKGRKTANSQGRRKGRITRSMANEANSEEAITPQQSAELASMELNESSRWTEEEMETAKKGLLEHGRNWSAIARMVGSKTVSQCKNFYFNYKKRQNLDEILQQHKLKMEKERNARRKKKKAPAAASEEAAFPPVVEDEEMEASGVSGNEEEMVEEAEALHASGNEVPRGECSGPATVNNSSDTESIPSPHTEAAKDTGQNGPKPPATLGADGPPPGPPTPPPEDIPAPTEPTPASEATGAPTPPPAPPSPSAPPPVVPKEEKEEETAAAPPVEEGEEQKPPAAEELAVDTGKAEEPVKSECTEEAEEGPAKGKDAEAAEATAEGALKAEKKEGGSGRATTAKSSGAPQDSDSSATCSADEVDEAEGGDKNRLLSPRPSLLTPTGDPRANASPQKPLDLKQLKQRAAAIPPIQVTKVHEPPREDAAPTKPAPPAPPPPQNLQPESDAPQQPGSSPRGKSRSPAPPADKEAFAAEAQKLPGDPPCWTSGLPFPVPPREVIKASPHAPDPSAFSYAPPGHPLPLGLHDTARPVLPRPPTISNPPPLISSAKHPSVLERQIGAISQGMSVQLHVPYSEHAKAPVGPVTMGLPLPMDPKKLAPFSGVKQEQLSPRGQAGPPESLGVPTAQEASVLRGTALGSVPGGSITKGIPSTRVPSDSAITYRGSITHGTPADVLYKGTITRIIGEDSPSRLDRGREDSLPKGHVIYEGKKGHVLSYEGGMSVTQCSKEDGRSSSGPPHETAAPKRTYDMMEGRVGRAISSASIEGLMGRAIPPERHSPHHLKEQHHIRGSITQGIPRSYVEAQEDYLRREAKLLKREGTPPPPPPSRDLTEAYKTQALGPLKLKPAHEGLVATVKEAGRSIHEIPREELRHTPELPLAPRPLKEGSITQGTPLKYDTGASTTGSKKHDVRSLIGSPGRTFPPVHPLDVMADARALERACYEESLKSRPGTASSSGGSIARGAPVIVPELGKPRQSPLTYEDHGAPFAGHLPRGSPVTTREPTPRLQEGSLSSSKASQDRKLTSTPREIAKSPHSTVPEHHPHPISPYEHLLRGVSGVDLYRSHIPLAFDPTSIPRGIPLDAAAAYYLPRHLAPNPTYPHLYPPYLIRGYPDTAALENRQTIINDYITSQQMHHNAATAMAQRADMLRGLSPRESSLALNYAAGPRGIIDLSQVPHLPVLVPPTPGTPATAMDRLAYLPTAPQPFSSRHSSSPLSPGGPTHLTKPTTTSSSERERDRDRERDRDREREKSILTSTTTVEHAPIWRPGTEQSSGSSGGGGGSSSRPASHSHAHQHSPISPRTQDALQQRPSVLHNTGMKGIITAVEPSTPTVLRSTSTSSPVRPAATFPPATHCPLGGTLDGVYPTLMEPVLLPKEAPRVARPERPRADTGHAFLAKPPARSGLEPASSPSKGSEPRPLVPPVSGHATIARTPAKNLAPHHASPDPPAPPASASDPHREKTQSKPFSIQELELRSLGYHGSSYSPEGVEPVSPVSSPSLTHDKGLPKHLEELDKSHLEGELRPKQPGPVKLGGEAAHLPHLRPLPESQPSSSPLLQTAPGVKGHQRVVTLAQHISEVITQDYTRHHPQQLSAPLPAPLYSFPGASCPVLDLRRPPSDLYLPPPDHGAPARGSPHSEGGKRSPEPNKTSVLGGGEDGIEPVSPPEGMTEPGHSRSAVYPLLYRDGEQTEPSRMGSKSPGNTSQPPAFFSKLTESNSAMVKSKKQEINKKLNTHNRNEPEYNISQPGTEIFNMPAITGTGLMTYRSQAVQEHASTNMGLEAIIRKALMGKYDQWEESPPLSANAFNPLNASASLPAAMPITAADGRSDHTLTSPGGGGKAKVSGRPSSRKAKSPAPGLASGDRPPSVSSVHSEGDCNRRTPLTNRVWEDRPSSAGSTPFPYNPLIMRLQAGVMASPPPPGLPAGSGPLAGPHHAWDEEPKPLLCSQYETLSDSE
Chain of DNA dC->dU-editing enzyme APOBEC-3G (Q9HC16 whole entry): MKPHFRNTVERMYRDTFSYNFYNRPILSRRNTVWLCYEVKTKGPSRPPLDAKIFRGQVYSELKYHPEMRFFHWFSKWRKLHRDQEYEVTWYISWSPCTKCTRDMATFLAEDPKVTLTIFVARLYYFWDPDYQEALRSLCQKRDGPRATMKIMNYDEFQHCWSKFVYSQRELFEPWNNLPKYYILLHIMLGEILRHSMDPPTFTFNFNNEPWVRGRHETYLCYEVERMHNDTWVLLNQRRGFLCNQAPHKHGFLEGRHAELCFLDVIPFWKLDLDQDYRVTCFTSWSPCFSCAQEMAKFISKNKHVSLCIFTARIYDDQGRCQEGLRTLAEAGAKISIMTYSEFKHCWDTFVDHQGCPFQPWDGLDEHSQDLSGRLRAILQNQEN
Chain of Cytochrome P450 3A4 (P08684 whole entry): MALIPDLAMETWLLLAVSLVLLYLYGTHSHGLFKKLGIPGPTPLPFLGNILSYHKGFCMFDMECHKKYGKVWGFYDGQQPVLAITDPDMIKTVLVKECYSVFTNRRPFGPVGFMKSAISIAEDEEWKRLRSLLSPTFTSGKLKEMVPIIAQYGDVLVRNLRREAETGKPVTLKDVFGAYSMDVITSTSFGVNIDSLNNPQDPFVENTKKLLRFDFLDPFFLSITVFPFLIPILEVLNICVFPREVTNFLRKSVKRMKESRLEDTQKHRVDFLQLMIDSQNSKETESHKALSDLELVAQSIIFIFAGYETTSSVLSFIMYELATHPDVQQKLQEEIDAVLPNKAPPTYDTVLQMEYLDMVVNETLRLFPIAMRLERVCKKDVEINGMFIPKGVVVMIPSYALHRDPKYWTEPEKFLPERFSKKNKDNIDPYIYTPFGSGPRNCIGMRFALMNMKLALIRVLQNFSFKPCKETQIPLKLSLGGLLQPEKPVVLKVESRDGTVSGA
Chain of DNA dC->dU-editing enzyme APOBEC-3A (P31941 whole entry): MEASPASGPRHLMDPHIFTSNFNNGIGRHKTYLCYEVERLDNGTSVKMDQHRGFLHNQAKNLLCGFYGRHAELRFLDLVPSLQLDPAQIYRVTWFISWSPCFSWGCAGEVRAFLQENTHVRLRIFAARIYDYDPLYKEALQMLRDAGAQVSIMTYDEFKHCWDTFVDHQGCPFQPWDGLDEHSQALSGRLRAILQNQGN
Chain of Photoreceptor-specific nuclear receptor (Q9Y5X4 whole entry): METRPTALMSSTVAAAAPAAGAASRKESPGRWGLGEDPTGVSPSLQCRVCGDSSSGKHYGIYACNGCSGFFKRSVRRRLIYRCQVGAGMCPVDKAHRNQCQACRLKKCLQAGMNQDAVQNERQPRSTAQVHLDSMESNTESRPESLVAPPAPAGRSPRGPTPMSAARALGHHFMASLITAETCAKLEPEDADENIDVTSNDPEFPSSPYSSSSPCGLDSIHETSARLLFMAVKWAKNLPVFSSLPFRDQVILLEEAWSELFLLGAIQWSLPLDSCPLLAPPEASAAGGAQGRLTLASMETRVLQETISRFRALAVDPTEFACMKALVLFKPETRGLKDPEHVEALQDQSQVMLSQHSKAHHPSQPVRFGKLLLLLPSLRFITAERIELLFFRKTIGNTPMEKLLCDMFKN

One may read the IC50 as the concentration at which inhibition is half-maximal. In general, AC50 refers to the concentration at which the activity in the assay is half-maximal. As for `C=CCSc1nc(O)c2sc3nc(C)cc(C)c3c2n1`, the half-inhibitory concentration (IC50) in [1] was 25.4 µM (active). Also, the AC50 on Cytochrome P450 3A4 was 11.2 µM (inconclusive).

Turning to `COCCCN1C(=O)C(O)=C(C(=O)c2ccc(C)o2)C1c1cccc(Br)c1` (stereo not drawn), the results for the 50% inhibitory concentration (IC50) in [2] and in assay [3] were 11.1 µM (not active) and > 39.8 µM (not active), respectively.

As for `O=c1oc(-c2cccs2)nc2scc(-c3cccs3)c12`, the IC50 in [1] was 24.2 µM (active).

A word on the EC50: it is the concentration needed to bring the measured effect to its halfway point. As to `O=C(Nc1cccnc1)c1cc(-c2ccc3c(c2)OCO3)on1`, the AC50 was 5.56 µM (active) in assay [4] and 5.5 µM (active) in assay [5]. At Protein skinhead-1, the IC50 was > 100 µM (inactive). Also, on Estrogen receptor, the EC50 is reported as 12.9 µM (not active).

Turning to `Cc1nnc(N2C(=O)c3cccc4c([N+](=O)[O-])ccc(c34)C2=O)s1`, the EC50 in assay [6] is 733 nM (active).

As to `CCn1c(SCC(=O)Nc2cccc(F)c2)nnc1-c1cc2cc(Br)ccc2o1`, the concentration for a half-maximal effect (EC50) was 10.8 µM (active) in assay [7], 11.1 µM (active) at Estrogen receptor, > 120 µM (not active) with H4 and > 120 µM (not active) in assay [10]. Besides, the IC50 in [8] was 5.3 µM (active); in [9], 2.82 µM (active).

`Cc1ccc(/N=C/c2cccc(O)c2O)c(C)c1`: the figures for the concentration giving a half-maximal response (EC50) (at Streptokinase A; in assay [11]; with Streptococcus) were > 150 µM (not active), > 150 µM (not active) and 7.41 µM (active), respectively. For the same compound, the 50% inhibitory concentration (IC50) is 14 µM (active) in assay [12] and 23.3 µM (active) in [13].

A word on the CC50: it is the concentration that lowers cell viability or growth by half. In the case of `Cc1cc(Nc2ccc(Br)cc2)n2nc(C)nc2n1`, in [6], the concentration giving a half-maximal response (EC50) is 117 nM (active). The half-maximal cytotoxic concentration (CC50) in [14] is > 40 µM (active).
